Experiments:
[1] = target: Glutamate receptor ionotropic, kainate 1 (Homo sapiens, UniProt P39086); assay: Displacement of [3H]kianic acid from recombinant GluK1 kainate receptor (unknown origin) expressed in HEK293 cell membranes measured after 1 hr
[2] = target: Glutamate receptor ionotropic, kainate 2 (Homo sapiens, UniProt Q13002); assay: Displacement of [3H]kianic acid from recombinant GluK2 kainate receptor (unknown origin) expressed in HEK293 cell membranes measured after 1 hr
Chain of Glutamate receptor ionotropic, kainate 2 (Q13002 whole entry): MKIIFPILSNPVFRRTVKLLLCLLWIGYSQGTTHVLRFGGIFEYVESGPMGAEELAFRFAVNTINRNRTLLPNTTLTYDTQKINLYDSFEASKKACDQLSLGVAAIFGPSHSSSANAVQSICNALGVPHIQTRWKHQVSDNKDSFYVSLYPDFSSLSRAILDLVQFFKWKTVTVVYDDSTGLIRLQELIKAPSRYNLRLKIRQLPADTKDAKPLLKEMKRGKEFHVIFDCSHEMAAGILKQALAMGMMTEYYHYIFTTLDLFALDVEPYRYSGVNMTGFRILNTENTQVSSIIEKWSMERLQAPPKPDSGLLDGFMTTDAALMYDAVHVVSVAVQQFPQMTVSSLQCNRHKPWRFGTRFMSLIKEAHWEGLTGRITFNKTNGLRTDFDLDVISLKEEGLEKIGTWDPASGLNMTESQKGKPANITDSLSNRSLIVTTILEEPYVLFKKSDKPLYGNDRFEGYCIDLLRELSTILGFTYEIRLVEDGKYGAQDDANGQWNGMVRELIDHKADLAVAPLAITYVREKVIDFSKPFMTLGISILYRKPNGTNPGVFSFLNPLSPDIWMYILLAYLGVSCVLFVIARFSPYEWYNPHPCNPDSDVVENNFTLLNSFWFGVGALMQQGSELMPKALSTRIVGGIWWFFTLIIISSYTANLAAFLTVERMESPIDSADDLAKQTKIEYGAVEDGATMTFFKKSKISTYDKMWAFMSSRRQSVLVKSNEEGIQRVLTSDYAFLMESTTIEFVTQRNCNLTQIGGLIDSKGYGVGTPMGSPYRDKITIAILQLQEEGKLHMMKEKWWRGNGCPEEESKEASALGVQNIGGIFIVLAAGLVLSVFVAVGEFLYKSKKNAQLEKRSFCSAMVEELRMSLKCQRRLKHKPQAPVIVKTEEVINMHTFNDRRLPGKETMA

Chain of Glutamate receptor ionotropic, kainate 1 (P39086 whole entry): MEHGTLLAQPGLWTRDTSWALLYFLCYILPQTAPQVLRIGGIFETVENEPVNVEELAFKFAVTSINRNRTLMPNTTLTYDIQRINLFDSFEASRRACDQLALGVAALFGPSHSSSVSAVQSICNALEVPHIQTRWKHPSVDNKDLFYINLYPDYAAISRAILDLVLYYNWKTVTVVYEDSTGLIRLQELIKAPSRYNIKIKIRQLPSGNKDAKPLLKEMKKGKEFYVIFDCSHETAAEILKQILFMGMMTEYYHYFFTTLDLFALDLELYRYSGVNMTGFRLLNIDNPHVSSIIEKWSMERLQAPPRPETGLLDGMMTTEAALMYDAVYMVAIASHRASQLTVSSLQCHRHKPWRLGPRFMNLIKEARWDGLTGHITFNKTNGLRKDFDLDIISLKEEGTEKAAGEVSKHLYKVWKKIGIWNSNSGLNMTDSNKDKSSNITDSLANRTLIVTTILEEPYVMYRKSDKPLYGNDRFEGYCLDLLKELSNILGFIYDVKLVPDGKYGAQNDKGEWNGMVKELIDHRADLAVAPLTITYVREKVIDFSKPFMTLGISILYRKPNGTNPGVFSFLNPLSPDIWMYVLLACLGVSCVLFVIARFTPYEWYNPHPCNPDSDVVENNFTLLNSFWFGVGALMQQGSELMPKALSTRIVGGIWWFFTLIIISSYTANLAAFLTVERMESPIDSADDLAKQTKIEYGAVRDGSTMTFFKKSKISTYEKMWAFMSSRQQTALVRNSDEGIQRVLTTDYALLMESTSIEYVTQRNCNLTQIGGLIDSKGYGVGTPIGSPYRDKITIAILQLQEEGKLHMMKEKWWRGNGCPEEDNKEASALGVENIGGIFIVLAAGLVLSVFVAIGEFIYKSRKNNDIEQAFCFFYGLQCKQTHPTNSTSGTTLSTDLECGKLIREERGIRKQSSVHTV

Question: CN[C@H]1[C@H]2O[C@@](C[C@H](N)C(=O)O)(C(=O)O)C[C@H]2OC[C@H]1O [DYSIHERBAINE] was tested. Which Ki [1] did it give?
Answer: 0.74 nM

Question: And the Ki [2]?
Answer: 1.2 nM

Reference: ChEMBL document CHEMBL3864136, “A monocyclic neodysiherbaine analog: Synthesis and evaluation” (Bioorg Med Chem Lett, 2016)
